Test results reported in US20210254106A1, “ENGINEERING B LYMPHOCYTES BY UTILIZING ENDOGENOUS ACTIVATION-INDUCED CYTIDINE DEAMINASE” (INSTITUTE FOR RESEARCH IN BIOMEDICINE, priority 2018, published 2021).

Tested on: naïve B cells (IgM+ IgD+ CD27− IgG− IgA−)
Test: in vitro acquisition of natural switch region inserts in stimulated naïve B cells with DNA repair inhibitors
Assay type: cell-based, human
Conditions: Olaparip 4 nM or SCR7 100 nM in culture medium vs DMSO control; B cells stimulated with K562L (CD40L) and IL4; harvested day 10; 50 000 sorted IgG switched B cells; γ-switch region PCR and MinION sequencing
Method: To this end, B cells were isolated by magnetic beads using anti-CD19 beads, followed by FACS-sorting and selection of naïve B cells (IgM^+ IgD^+ CD27^− IgG^− IgA^−). Cells were plated in 48 well plates at concentrations of 50 000 B cells/ml and stimulated with 25 000 irradiated K562L/ml and 8 ng/ml IL4. The DNA repair inhibitor Olaparip (4 nM), SCR7 (100 nM) or DMSO (1:100) as control were added to the culture medium. At day 3 and day 6 the culture medium was replaced which fresh medium supplemented with IL4 and inhibitors. Cells were harvested at day 10 and stained with fluorescently labeled anti-CD19 and anti-IgG antibodies. Switched IgG B cell were sorted by flow cytometry and gDNA was isolation using a commercial kit. Genomic DNA of 50 000 sorted cells were used for γ-switch region PCR amplification and MINION sequencing as described above. Inserts frequencies were analyzed with a bioinformatics pipeline (Pieper K, Tan J, Piccoli L, Foglierini M, Barbieri S, Chen Y, Silacci-Fregni C, Wolf T, Jarrossay D, Anderle M, Abdi A, Ndungu F M, Doumbo O K, Traore B, Tran T M, Jongo S, Zenklusen I, Crompton P D, Daubenberger C, Bull P C, Sallusto F, Lanzavecchia A: Public antibodies to malaria antigens generated by two LAIR1 insertion modalities. Nature. 2017. Aug. 31; 548(7669):597-601).

| Compound | natural switch insert frequencies |
| --- | --- |
| SCR7 | decreased |
| O=C(c1cc(Cc2n[nH]c(=O)c3ccccc23)ccc1F)N1CCN(C(=O)C2CC2)CC1 [Olaparib] | elevated |
